# Assay results reported in patent US5747535A, “Selective thrombin inhibitors” (priority 1995, dated 1998).
# Read-outs that look alike come from different tables or passages of the source.
# Tests used:
# [1] = Test 2: Pharmacokinetic test in rats; assay type: in vivo, rat; conditions: for concentration at 0.05 h: 3 min; for concentration at 0.5 h: 30 min; for concentration at 0.75 h: 45 min; for concentration at 1 h: 60 min; for concentration at 1.5 h: 90 min; for concentration at 2 h: 120 min; for concentration at 3 h: 180 min; for bioavailability: oral route
# Method: (§1) Male rats and dogs were fasted for 24 hours and used as the experimental animals. […] Bloods were collected from the animals at given time intervals and then immediately mixed with methanol and zinc sulfate. Finally, the upper layer of the mixture was quantitatively analyzed at ultraviolet wavelength of 231 nm to measure the drug concentration in blood by HPLC.
# bovine thrombin = bovine thrombin (Bos taurus, UniProt P00735); assay: biochemical;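 further: bovine thrombin cleaving the chromogenic substrate Chromozym TH, with para-nitroaniline release tracked as absorbance change over time to give initial rates, in Tris buffer at pH 7.8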
# Excerpt: The thrombin inhibitory effect of the compound of formula (I) according to the present invention can be identified by determination of a dissociation constant Ki represented by the following equation according to the known method described in literature [see, Methods in enzymology V. 80,p341-361;Biochemistry 27,p2144-2151 (1988)].
# The dissociation constant Ki denotes the degree of dissociation of the enzyme-thrombin inhibitor complex. […] Such dissociation constant can be determined by reacting thrombin with a certain substrate which develops a color when it is hydrolyzed by the action of thrombin, and then measuring the degree of color development as a function of time by means of spectrophotometry.
# Chromozym TH is hydrolyzed by thrombin to produce yellow para-nitroaniline. Accordingly, the amount of yellow para-nitroaniline thus produced can be measured as the change of absorbance in the course of time to determine the thrombin inhibitory activity of the compound according to the present invention. That is, the enzyme activity can be determined from the rate of change in absorbance and then can be directly connected with the ability of the thrombin inhibitor to inhibit the enzyme activity (see, Methods in Enzymology, V. 80,p341-361,Biochemistry 27, p2144-2151, 1988).
# The ability of the compound according to the present invention to inhibit the thrombin activity was determined as described in the following.
# 1160 μl of 0.1M tris buffered solution (pH 7.8) containing 150 mM NaCl and 0.1% PEG 8000 (polyethylene glycol, molecular weight about 8,000) was added to a 1.5 ml cuvette. Chromozym TH was dissolved in dimethylsulfoxide(DMSO) in the concentration of 10mM and the resulting solution was diluted with the said tris buffered solution to the concentration of 0.1 mM, which was then used as the substrate solution. 225 μl of 0.1 mM substrate solution thus prepared was added to the cuvette. The inhibitor solution was prepared by dissolving the thrombin inhibitor compound according to the present invention in dimethylsulfoxide in the concentration of 10 mg/ml and then diluting the resulting solution with the said tris buffered solution to the concentration of 0.1 mg/ml, 0.01 mg/ml, 0.001 mg/ml and 0.0001 mg/ml. The resulting inhibitor solution was taken in an amount corresponding to 0 to 10 μg as the inhibitor and then diluted with tris buffered solution to make the total volume of 100 μl which was added to the cuvette.
# 15 μl of bovine thrombin solution dissolved in above tris buffered solution in the concentration of 0.1 mg/ml was added to the cuvette to initiate the enzyme hydrolysis reaction. The amount of para-nitroaniline produced for 2 minutes from the moment the enzyme is added was monitored by measuring the absorbance at 381 nm. The continuous spectrum of absorbance to reaction time was depicted. The same experiments were conducted for various concentration of the inhibitor to obtain the continuous spectrum.
# In each spectrum, the initial velocity Vi was obtained from the slope within initial 30 seconds of the reaction time and then a graph for the reciprocal value of initial velocity(1/Vi) to the inhibitor concentration was depicted. From the graph, the primary equation satisfying the points depicted thereon was obtained and then the value Ki was calculated from the x intercept of the primary equation using the enzyme reaction equation.
# The velocity constant Ks was obtained using the same solution in the same concentration as in determination of the value Ki but using the following experimental procedure.
# [2] = Test 2: Pharmacokinetic test in dogs; assay type: in vivo, dog; conditions: for concentration at 2 min / concentration at 5 min / concentration at 10 min / concentration at 20 min / concentration at 0.5 h / concentration at 0.75 h / concentration at 1 h / concentration at 1.5 h / concentration at 2 h / concentration at 4 h / concentration at 5 h / concentration at 6 h / concentration at 3 h: 10 mg/kg; for concentration at 0.5 h: 30 min; for concentration at 0.75 h: 45 min; for concentration at 1 h: 60 min; for concentration at 1.5 h: 90 min; for concentration at 2 h: 120 min; for concentration at 4 h: 240 min; for concentration at 5 h: 300 min; for concentration at 6 h: 360 min; for concentration at 3 h: 180 min; for bioavailability: oral route
# Method: as §1
# [3] = rat, blood, iv, 10 mg/kg, Rat-1, i.v. 10 mg/kg, read-out: Blood concentration
# [4] = rat, blood, iv, 10 mg/kg, Rat-2, i.v. 10 mg/kg, read-out: Blood concentration
# [5] = rat, blood, iv, 10 mg/kg, Rat-3, i.v. 10 mg/kg, read-out: Blood concentration
# [6] = rat, blood, iv, 10 mg/kg, rats, i.v. 10 mg/kg, read-out: Blood concentration, Average(+error)
# [7] = rat, blood, po, 15 mg/kg, Rat-1, oral 15 mg/kg, read-out: Blood concentration
# [8] = rat, blood, po, 15 mg/kg, Rat-2, oral 15 mg/kg, read-out: Blood concentration
# [9] = rat, blood, po, 15 mg/kg, Rat-3, oral 15 mg/kg, read-out: Blood concentration
# [10] = rat, blood, po, 15 mg/kg, rats, oral 15 mg/kg, read-out: Blood concentration, Average(+error)
# [11] = dog, blood, iv, Dog-1, i.v. 10 mg/kg, read-out: Blood concentration
# [12] = dog, blood, iv, Dog-2, i.v. 10 mg/kg, read-out: Blood concentration
# [13] = dog, blood, iv, dogs, i.v. 10 mg/kg, read-out: Blood concentration, Average(+error)
# [14] = dog, blood, po, Dog-1, oral 10 mg/kg, read-out: Blood concentration
# [15] = dog, blood, po, Dog-2, oral 10 mg/kg, read-out: Blood concentration
# [16] = dog, blood, po, dogs, oral 10 mg/kg, read-out: Blood concentration, Average(+error)
structure (smiles),measurement,setting,value
"CN(C(=O)[C@H](Cc1ccc(C(=N)NN)cc1)NS(=O)(=O)c1ccc2ccccc2c1)C1CCCC1 [Example 1, (S)-N-cyclopentyl-N-methyl-3-(4-amidrazonophenyl)-2-(2-naphthylsulfonylamino)propionamide]",concentration at 1 min,[1]; [3],31500 ng/mL
same,concentration at 0.05 h,[1]; [3],8100 ng/mL
same,concentration at 5 min,[1]; [3],3980 ng/mL
same,concentration at 10 min,[1]; [3],1910 ng/mL
same,concentration at 20 min,[1]; [3],918 ng/mL
same,concentration at 0.5 h,[1]; [3],631 ng/mL
same,concentration at 0.75 h,[1]; [3],355 ng/mL
same,concentration at 1 h,[1]; [3],270 ng/mL
same,concentration at 1.5 h,[1]; [3],168 ng/mL
same,concentration at 2 h,[1]; [3],76 ng/mL
same,concentration at 3 h,[1]; [3],87 ng/mL
same,concentration at 1 min,[1]; [4],23000 ng/mL
same,concentration at 0.05 h,[1]; [4],6770 ng/mL
same,concentration at 5 min,[1]; [4],3070 ng/mL
same,concentration at 10 min,[1]; [4],1830 ng/mL
same,concentration at 20 min,[1]; [4],898 ng/mL
same,concentration at 0.5 h,[1]; [4],600 ng/mL
same,concentration at 0.75 h,[1]; [4],408 ng/mL
same,concentration at 1 h,[1]; [4],242 ng/mL
same,concentration at 1.5 h,[1]; [4],166 ng/mL
same,concentration at 2 h,[1]; [4],97 ng/mL
same,concentration at 3 h,[1]; [4],73 ng/mL
same,concentration at 1 min,[1]; [5],32000 ng/mL
same,concentration at 0.05 h,[1]; [5],7880 ng/mL
same,concentration at 5 min,[1]; [5],4220 ng/mL
same,concentration at 10 min,[1]; [5],1930 ng/mL
same,concentration at 20 min,[1]; [5],883 ng/mL
same,concentration at 0.5 h,[1]; [5],591 ng/mL
same,concentration at 0.75 h,[1]; [5],398 ng/mL
same,concentration at 1 h,[1]; [5],289 ng/mL
same,concentration at 1.5 h,[1]; [5],184 ng/mL
same,concentration at 2 h,[1]; [5],119 ng/mL
same,concentration at 3 h,[1]; [5],78 ng/mL
same,concentration at 1 min,[1]; [6],28800 ng/mL
same,concentration at 0.05 h,[1]; [6],7590 ng/mL
same,concentration at 5 min,[1]; [6],3760 ng/mL
same,concentration at 10 min,[1]; [6],1890 ng/mL
same,concentration at 20 min,[1]; [6],900 ng/mL
same,concentration at 0.5 h,[1]; [6],607 ng/mL
same,concentration at 0.75 h,[1]; [6],387 ng/mL
same,concentration at 1 h,[1]; [6],267 ng/mL
same,concentration at 1.5 h,[1]; [6],173 ng/mL
same,concentration at 2 h,[1]; [6],97 ng/mL
same,concentration at 3 h,[1]; [6],79 ng/mL
same,concentration at 5 min,[1]; [7],1610 ng/mL
same,concentration at 10 min,[1]; [7],1480 ng/mL
same,concentration at 20 min,[1]; [7],569 ng/mL
same,concentration at 0.5 h,[1]; [7],232 ng/mL
same,concentration at 0.75 h,[1]; [7],145 ng/mL
same,concentration at 1 h,[1]; [7],143 ng/mL
same,concentration at 1.5 h,[1]; [7],66 ng/mL
same,concentration at 2 h,[1]; [7],34 ng/mL
same,concentration at 3 h,[1]; [7],24 ng/mL
same,concentration at 5 min,[1]; [8],822 ng/mL
same,concentration at 10 min,[1]; [8],686 ng/mL
same,concentration at 20 min,[1]; [8],166 ng/mL
same,concentration at 0.5 h,[1]; [8],82 ng/mL
same,concentration at 0.75 h,[1]; [8],107 ng/mL
same,concentration at 1 h,[1]; [8],123 ng/mL
same,concentration at 1.5 h,[1]; [8],186 ng/mL
same,concentration at 3 h,[1]; [8],238 ng/mL
same,concentration at 5 min,[1]; [9],570 ng/mL
same,concentration at 10 min,[1]; [9],384 ng/mL
same,concentration at 20 min,[1]; [9],97 ng/mL
same,concentration at 0.5 h,[1]; [9],113 ng/mL
same,concentration at 0.75 h,[1]; [9],112 ng/mL
same,concentration at 1 h,[1]; [9],110 ng/mL
same,concentration at 1.5 h,[1]; [9],119 ng/mL
same,concentration at 2 h,[1]; [9],71 ng/mL
same,concentration at 3 h,[1]; [9],64 ng/mL
same,concentration at 5 min,[1]; [10],1000 ng/mL
same,concentration at 10 min,[1]; [10],850 ng/mL
same,concentration at 20 min,[1]; [10],255 ng/mL
same,concentration at 0.5 h,[1]; [10],143 ng/mL
same,concentration at 0.75 h,[1]; [10],121 ng/mL
same,concentration at 1 h,[1]; [10],125 ng/mL
same,concentration at 1.5 h,[1]; [10],124 ng/mL
same,concentration at 2 h,[1]; [10],53 ng/mL
same,concentration at 3 h,[1]; [10],109 ng/mL
same,bioavailability,"[1]; rat, blood, rats, read-out: Bioavailability",15%
same,half-life,"[1]; rat, blood, rats, read-out: Elimination Half-life, Average + (error)",0.783 h
same,distribution and disappearance after intravenous injection,"[1]; rats, intravenous",rapidly distributed and then slowly disappeared
same,bioavailability,[1]; rats,15 (2) %
same,Ki,bovine thrombin,3.8 nM
same,concentration at 2 min,[2]; [11],29100 ng/mL
same,concentration at 5 min,[2]; [11],9080 ng/mL
same,concentration at 10 min,[2]; [11],5940 ng/mL
same,concentration at 20 min,[2]; [11],3610 ng/mL
same,concentration at 0.5 h,[2]; [11],2430 ng/mL
same,concentration at 0.75 h,[2]; [11],1940 ng/mL
same,concentration at 1 h,[2]; [11],1470 ng/mL
same,concentration at 1.5 h,[2]; [11],1270 ng/mL
same,concentration at 2 h,[2]; [11],1090 ng/mL
same,concentration at 4 h,[2]; [11],544 ng/mL
same,concentration at 5 h,[2]; [11],315 ng/mL
same,concentration at 6 h,[2]; [11],317 ng/mL
same,concentration at 2 min,[2]; [12],36600 ng/mL
same,concentration at 5 min,[2]; [12],5230 ng/mL
same,concentration at 10 min,[2]; [12],3280 ng/mL
same,concentration at 20 min,[2]; [12],1800 ng/mL
same,concentration at 0.5 h,[2]; [12],1340 ng/mL
same,concentration at 0.75 h,[2]; [12],859 ng/mL
same,concentration at 1 h,[2]; [12],690 ng/mL
same,concentration at 1.5 h,[2]; [12],501 ng/mL
same,concentration at 2 h,[2]; [12],377 ng/mL
same,concentration at 4 h,[2]; [12],129 ng/mL
same,concentration at 5 h,[2]; [12],107 ng/mL
same,concentration at 6 h,[2]; [12],92 ng/mL
same,concentration at 2 min,[2]; [13],32900 ng/mL
same,concentration at 5 min,[2]; [13],7160 ng/mL
same,concentration at 10 min,[2]; [13],4610 ng/mL
same,concentration at 20 min,[2]; [13],2710 ng/mL
same,concentration at 0.5 h,[2]; [13],1880 ng/mL
same,concentration at 0.75 h,[2]; [13],1400 ng/mL
same,concentration at 1 h,[2]; [13],1080 ng/mL
same,concentration at 1.5 h,[2]; [13],885 ng/mL
same,concentration at 2 h,[2]; [13],733 ng/mL
same,concentration at 4 h,[2]; [13],337 ng/mL
same,concentration at 5 h,[2]; [13],211 ng/mL
same,concentration at 6 h,[2]; [13],204 ng/mL
same,concentration at 10 min,[2]; [14],1390 ng/mL
same,concentration at 20 min,[2]; [14],2080 ng/mL
same,concentration at 0.5 h,[2]; [14],1940 ng/mL
same,concentration at 0.75 h,[2]; [14],1890 ng/mL
same,concentration at 1 h,[2]; [14],2220 ng/mL
same,concentration at 1.5 h,[2]; [14],1270 ng/mL
same,concentration at 2 h,[2]; [14],774 ng/mL
same,concentration at 3 h,[2]; [14],663 ng/mL
same,concentration at 4 h,[2]; [14],812 ng/mL
same,concentration at 5 h,[2]; [14],51 ng/mL
same,concentration at 6 h,[2]; [14],118 ng/mL
same,concentration at 10 min,[2]; [15],15 ng/mL
same,concentration at 20 min,[2]; [15],17 ng/mL
same,concentration at 0.5 h,[2]; [15],105 ng/mL
same,concentration at 0.75 h,[2]; [15],558 ng/mL
same,concentration at 1 h,[2]; [15],1310 ng/mL
same,concentration at 1.5 h,[2]; [15],935 ng/mL
same,concentration at 2 h,[2]; [15],730 ng/mL
same,concentration at 3 h,[2]; [15],616 ng/mL
same,concentration at 4 h,[2]; [15],318 ng/mL
same,concentration at 5 h,[2]; [15],222 ng/mL
same,concentration at 6 h,[2]; [15],153 ng/mL
same,concentration at 10 min,[2]; [16],702 ng/mL
same,concentration at 20 min,[2]; [16],1050 ng/mL
same,concentration at 0.5 h,[2]; [16],1020 ng/mL
same,concentration at 0.75 h,[2]; [16],1220 ng/mL
same,concentration at 1 h,[2]; [16],1760 ng/mL
same,concentration at 1.5 h,[2]; [16],1100 ng/mL
same,concentration at 2 h,[2]; [16],752 ng/mL
same,concentration at 3 h,[2]; [16],640 ng/mL
same,concentration at 4 h,[2]; [16],565 ng/mL
same,concentration at 5 h,[2]; [16],136 ng/mL
same,concentration at 6 h,[2]; [16],135 ng/mL
same,bioavailability,"[2]; dog, blood, dogs, read-out: Bioavailability",61%
same,half-life,"[2]; dog, blood, dogs, read-out: Elimination Half-life, Average + (error)",1.63 h
same,elimination half-life in dogs compared with argatroban in human being,[2]; dogs vs argatroban (40 minutes) in human being,twice longer or more than that of commercially available argatroban
same,elimination half-life in dogs compared with rats,"[2]; dogs vs rats, intravenous",twice longer or more than that in rats
same,distribution and disappearance after intravenous injection,"[2]; dogs, intravenous",rapidly distributed and then slowly disappeared
same,bioavailability,[2]; dogs,61 (15) %
same,pharmacokinetic characteristics compared with argatroban,[2]; oral absorption and elimination half-life,better pharmacokinetic characteristics than argatroban
